Consider one compound from patent US20110136145A1, “METHODS FOR PROMOTING FUSION AND REPROGRAMMING OF SOMATIC CELLS” (THE JOHNS HOPKINS UNIVERSITY, priority 2008, published 2011).

“Also recorded” adds a separate entry of the source.

The assay has as its system ESC-induced Oct4-GFP re-activation in NSCs. The assay can be described thus: CLEAR analysis of ESC fusion-induced reprogramming (PEG-induced fusion of Z-Red ESCs and CIPOE NSCs, flow cytometry). From the text: CLEAR strategy uses engineered ESCs and NSCs for monitoring fusion-induced DsRed expression and reprogramming-induced GFP expression (FIG. 1A). Z-Red ESCs were derived from a clonal ESC line containing one copy of a transgene (CAG-loxP-LacZ::neomycin-polyA-loxP-DsRed.T3) as a Cre recombination excision reporter.
Adult NSCs were isolated from Oct4-GFP (GOF 18-A PE-EGFP) transgenic mice and transduced by retroviruses to stably co-express Cre and the puromycin resistance gene through a bicistronic cassette (termed CIPOE NSCs hereafter). Somatic cells with Oct4-GFP transgene integration have been used previously to investigate reprogramming, in which the regulatory elements of Oct4 direct reliable GFP reactivation from somatic genomes in reprogrammed ESC-like hybrid cells (also see FIG. 3). Multiple CIPOE NSC lines from Oct4-GFP transgenic mice were established, characterized and used for subsequent cell fusion experiments.
To quantitatively analyze the reprogramming-induced Oct4-GFP re-activation, dual-color flow cytometry was used to display and measure the cell population that underwent PEG-induced cell fusion. Viable cells were identified by their typical FSC (Forward Scatter) and SSC (Side Scatter) properties. To ensure appropriate gating for […] and DsRed+ events and to compensate the spectrum crossover of GFP and DsRed signals, the system was first calibrated using multiple control cells, including Z-Red ESCs, CIPOE NSCs, mixed Z-Red ESCs and CIPOE NSCs without PEG. Z-Red ESCs transfected with a constitutive Cre expression plasmid, and CIPOE NSCs transfected with a Cre excision reporter plasmid (FIG. 4A).
ESC fusion-induced Oct4 re-activation from NSCs was quantitatively measured using two different approaches. In the first approach, the reprogramming frequency (Rf) is determined by the ratio of GFP DsRed+ cells to total DsRed+ cells. […] In the second approach, the reprogramming efficacy is determined by the distribution of GFP fluorescence intensities of individual cells from the DsRed+ population (FIG. 4C). This analysis provides a measurement of the efficiency of Oct4-GFP re-activation in NSCs after successful fusion.
The protocol was optimized for PEG-induced cell fusion between ESCs and NSCs to achieve maximum efficiency and minimal toxicity. Equal numbers of ESCs and NSCs were mixed thoroughly and spun down in PBS. The pellet was loosened by gentle tapping and 50% PEG (500 μl for 1×10^7 cells) was added to the cells continuously over one minute while swirling the mixture in 37° C. water bath Next, 2 ml of ESC medium was layered on top of PEG-cell mixture and one-minute incubation in 37° C., followed by low-speed centrifugation at 1,800 rpm for 5 minutes. After removing the supernatant, the pellet was incubated with ESC medium for one minute, washed, resuspended and plated onto gelatin-coated dishes and grown in Dubelcco's Modified Eagle's Medium, 15% fetal bovine serum supplemented with mouse leukemia inhibitory factor (ESGRO), 0.1 mM nonessential amino acids, 0.1 mM β-mercaptoethanol, and 50 U/ml penicillin/50 μg/ml streptomycin (ESC medium). […] The following pharmacological inhibitors were applied in ESC-fusion experiments only during the first 48 hours after fusion. DMOG (5-10 μM; BioMol), Anacardic acid (5-10 μM; Calbiochem), Trichostatin A (TSA, 100 nM-1 μM; Sigma) and azidothymidine (AZT, 1-5 μM; Sigma).
Background: In flow cytometry, cells or beads pass a laser one at a time.

[1] abbreviates: 10 μM, 48-hour treatment, analyzed at day 4, vs DMSO.

`COC(=O)CNC(=O)C(=O)OC` [DMOG, dimethyloxalylglycine]: the “Effects (on reprogramming)” value (5 μM, applied only during the first 48 hours after fusion) is given as “strong reprogramming deficit”. Further, under setting [1], the reprogramming efficacy entry is “significant decreases” and the reprogramming frequency result is “significant decreases”. The “ESC-induced Oct4 re-activation in NSCs” value (inhibitor treatment after fusion) is on record as “considerably reduced; also recorded: attenuates”.
